Square brackets hold non-standard residues; d marks the D form. Peptide text beside a SMILES is read from it. * marks the point of attachment. NMeL = CN[C@@H](CC(C)C)C(=O)O; Bz = O=C(c1ccccc1)*; NHtBu = CC(C)(C)N*
How the values were obtained:
[1] = molecular target: Voltage-dependent N-type calcium channel subunit alpha-1B (Homo sapiens, UniProt Q00975); assay: In vitro inhibitory activity against N-type calcium channel in the IMR-32 human neuroblastoma cells; assay type: cell-based
[2] = test system: Mus musculus; assay: Ability to prevent the audiogenic seizure (tonic seizure phase) in DBA/2 mice (N = 5 mice/ dose tested) tested in vivo at a concentration of 10 mg/kg; assay type: functional
[3] = test system: Mus musculus; assay: Ability to prevent the audiogenic seizure (tonic seizure phase) in DBA/2 mice (N = 5 mice/ dose tested) tested in vivo at a concentration of 3 mg/kg; assay type: functional
[4] = test system: Mus musculus; assay: Ability to prevent the audiogenic seizure (tonic seizure phase) in DBA/2 mice (N = 5 mice/ dose tested) tested in vivo at a concentration of 100 mg/kg; assay type: functional

Sequence of Voltage-dependent N-type calcium channel subunit alpha-1B (Q00975 whole entry): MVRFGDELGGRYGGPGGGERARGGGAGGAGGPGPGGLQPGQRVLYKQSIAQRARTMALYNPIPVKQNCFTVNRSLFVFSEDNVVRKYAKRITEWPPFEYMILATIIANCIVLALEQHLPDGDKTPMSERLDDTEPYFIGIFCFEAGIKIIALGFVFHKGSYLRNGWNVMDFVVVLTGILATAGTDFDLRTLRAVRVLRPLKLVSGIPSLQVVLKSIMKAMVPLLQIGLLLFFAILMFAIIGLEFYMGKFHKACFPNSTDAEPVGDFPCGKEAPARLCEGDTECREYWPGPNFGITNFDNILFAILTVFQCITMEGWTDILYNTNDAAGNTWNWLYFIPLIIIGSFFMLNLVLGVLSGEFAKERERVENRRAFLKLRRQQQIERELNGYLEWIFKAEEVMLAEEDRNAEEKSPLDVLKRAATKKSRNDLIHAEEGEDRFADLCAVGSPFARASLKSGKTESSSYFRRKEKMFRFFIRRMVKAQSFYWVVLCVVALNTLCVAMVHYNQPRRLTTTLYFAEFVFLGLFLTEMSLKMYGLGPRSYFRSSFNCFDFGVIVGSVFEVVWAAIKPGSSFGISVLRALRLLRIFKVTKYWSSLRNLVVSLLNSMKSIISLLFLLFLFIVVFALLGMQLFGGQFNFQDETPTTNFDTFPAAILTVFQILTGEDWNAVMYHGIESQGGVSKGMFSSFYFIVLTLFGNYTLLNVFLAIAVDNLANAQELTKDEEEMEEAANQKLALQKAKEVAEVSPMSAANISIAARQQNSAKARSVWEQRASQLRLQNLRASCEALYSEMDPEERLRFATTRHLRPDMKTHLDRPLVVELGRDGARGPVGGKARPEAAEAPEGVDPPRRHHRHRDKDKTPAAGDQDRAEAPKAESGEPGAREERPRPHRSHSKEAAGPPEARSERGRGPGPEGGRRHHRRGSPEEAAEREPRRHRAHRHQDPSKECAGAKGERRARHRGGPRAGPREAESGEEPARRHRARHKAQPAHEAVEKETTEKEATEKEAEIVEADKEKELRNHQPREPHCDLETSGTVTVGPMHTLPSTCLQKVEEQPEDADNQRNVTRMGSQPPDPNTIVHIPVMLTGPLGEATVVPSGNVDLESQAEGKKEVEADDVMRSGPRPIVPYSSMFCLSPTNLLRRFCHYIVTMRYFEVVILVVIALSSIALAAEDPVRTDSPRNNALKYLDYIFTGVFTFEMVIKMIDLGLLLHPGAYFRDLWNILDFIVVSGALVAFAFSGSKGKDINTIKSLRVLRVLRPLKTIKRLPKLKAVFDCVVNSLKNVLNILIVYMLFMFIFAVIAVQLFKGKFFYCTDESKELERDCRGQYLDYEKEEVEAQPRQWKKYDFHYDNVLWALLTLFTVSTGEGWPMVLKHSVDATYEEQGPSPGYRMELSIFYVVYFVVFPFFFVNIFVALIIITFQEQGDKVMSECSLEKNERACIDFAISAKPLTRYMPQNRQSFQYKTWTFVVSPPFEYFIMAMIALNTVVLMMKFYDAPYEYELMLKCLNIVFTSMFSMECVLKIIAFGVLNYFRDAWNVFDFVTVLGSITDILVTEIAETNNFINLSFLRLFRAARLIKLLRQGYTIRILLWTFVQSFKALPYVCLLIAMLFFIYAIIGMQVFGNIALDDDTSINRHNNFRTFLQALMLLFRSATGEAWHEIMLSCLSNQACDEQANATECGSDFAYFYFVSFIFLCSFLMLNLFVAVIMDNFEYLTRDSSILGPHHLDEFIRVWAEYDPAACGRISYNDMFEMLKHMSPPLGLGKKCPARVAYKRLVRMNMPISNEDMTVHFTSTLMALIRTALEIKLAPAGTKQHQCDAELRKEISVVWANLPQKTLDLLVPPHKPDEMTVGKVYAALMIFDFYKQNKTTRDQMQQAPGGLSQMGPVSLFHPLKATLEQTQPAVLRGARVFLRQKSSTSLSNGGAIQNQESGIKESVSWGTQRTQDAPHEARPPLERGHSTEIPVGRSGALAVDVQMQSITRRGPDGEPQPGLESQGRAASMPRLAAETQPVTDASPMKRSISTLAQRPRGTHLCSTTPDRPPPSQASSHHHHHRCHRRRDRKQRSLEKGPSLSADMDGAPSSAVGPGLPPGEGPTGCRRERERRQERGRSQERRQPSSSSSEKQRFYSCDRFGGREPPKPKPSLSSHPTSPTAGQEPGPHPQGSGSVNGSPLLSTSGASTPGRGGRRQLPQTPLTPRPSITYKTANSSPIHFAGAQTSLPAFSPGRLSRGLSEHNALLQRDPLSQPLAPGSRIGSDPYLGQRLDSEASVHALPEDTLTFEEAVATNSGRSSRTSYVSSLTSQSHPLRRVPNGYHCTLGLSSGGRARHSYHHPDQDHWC

Structure (SMILES)	IC50 [1]	further results
CC(C)C[C@H](NC(=O)N1CCCCCC1)C(=O)N[C@@H](Cc1ccc(OC(=O)c2ccccc2)cc1)C(=O)OC(C)(C)C	0.32 µM	
CC(C)C[C@@H](C(=O)N[C@@H](Cc1ccc(OC(=O)c2ccccc2)cc1)C(=O)NC(C)(C)C)N(C)CCC(C)(C)C	0.4 µM	
CCOC(=O)CN(C)[C@@H](CC(C)C)C(=O)N[C@@H](Cc1ccc(OC(=O)c2ccccc2)cc1)C(=O)NC(C)(C)C	4.4 µM	
CC(C)C[C@@H](C(=O)N[C@@H](Cc1ccc(OC(=O)c2ccccc2)cc1)C(=O)NC(C)(C)C)N1CCCCC1	1.4 µM	
CC(C)C[C@@H](C(=O)N[C@@H](Cc1ccc(OC(=O)c2ccccc2)cc1)C(=O)NC(C)(C)C)N1CCOCC1	6.4 µM	
CC(C)C[C@@H](C(=O)N[C@@H](Cc1ccc(OC(=O)c2ccccc2)cc1)C(=O)NC(C)(C)C)N(C)CCC(C)O (some centres undefined)	2.2 µM	Protection [2]: 40%
CC(C)C[C@@H](C(=O)N[C@@H](Cc1ccc(OC(=O)c2ccccc2)cc1)C(=O)NC(C)(C)C)N(C)C1CCOCC1	3.1 µM	
CCCCN(C)[C@@H](CC(C)C)C(=O)N[C@@H](Cc1ccc(OC(=O)c2ccccc2)cc1)C(=O)NC(C)(C)C	0.28 µM	
CC(C)CCN(C)[C@@H](CC(C)C)C(=O)N[C@@H](Cc1ccc(OC(=O)c2ccccc2)cc1)C(=O)NC(C)(C)C	0.32 µM	Protection [2]: 80%; Protection [3]: 20%
CC(C)C[C@H](NC(=O)N1CCCCCC1)C(=O)N[C@@H](Cc1ccc(OC(=O)c2ccccc2)cc1)C(=O)NC(C)(C)C	0.59 µM	
CCC(C)N(C)[C@@H](CC(C)C)C(=O)N[C@@H](Cc1ccc(OC(=O)c2ccccc2)cc1)C(=O)NC(C)(C)C (some centres undefined)	1.5 µM	
CC(C)C[C@@H](C(=O)N[C@@H](Cc1ccc(OC(=O)c2ccccc2)cc1)C(=O)NC(C)(C)C)N(C)C(C)C	2.8 µM	
CC(C)C[C@@H](C(=O)N[C@@H](Cc1ccc(OC(=O)c2ccccc2)cc1)C(=O)NC(C)(C)C)N(C)C	2.3 µM	
CC(C)C[C@@H](C(=O)N[C@@H](Cc1ccc(OC(=O)c2ccccc2)cc1)C(=O)NC(C)(C)C)N(C)CC(C)C	0.38 µM	
CC(C)C[C@@H](C(=O)N[C@@H](Cc1ccc(OC(=O)c2ccccc2)cc1)C(=O)NC(C)(C)C)N(C)CC1CCCCC1	0.7 µM	Protection [2]: 20%
CC(C)C[C@@H](C(=O)N[C@@H](Cc1ccc(OC(=O)c2ccccc2)cc1)C(=O)NC(C)(C)C)N(C)C1CCCCC1	0.2 µM	Protection [4]: 100%; Protection [3]: 20%
CC(C)C[C@H](N)C(=O)N[C@@H](Cc1ccc(OC(=O)c2ccccc2)cc1)C(=O)NC(C)(C)C (H-Leu-Tyr(Bz)-NHtBu)	3.8 µM	
CN[C@@H](CC(C)C)C(=O)N[C@@H](Cc1ccc(OC(=O)c2ccccc2)cc1)C(=O)NC(C)(C)C (H-[NMeL]-Tyr(Bz)-NHtBu)	2.3 µM	
